Assay results from patent publication US4474747A, “Process for increasing the tolerance of X-ray contrast media, and contrast media obtained thereby” (Guerbet S.A., priority 1981, dated 1984).

Key:
[1] = system: Rats; experiment: Acute intracisternal toxicity (method of Melartin et al.), rats; assay type: in vivo
Method: (§1) Acute intracisternal toxicity was determined by the method of E. Melartin, P. Tuohimaa, R. Dabb, Investigative Radiology, 1970, vol. 5, n°1, 13-21.

[2] = molecular target: proteins (Homo sapiens, UniProt P02768); experiment: Protein binding, Brodersen technique; assay type: in vitro ADME
From the text: The degree of the interaction with proteins is an index of the tolerance of contrast media. The lower this interaction, the better the tolerance.
The protein binding was investigated according to the Brodersen technique (J. of Clinical Investigation, 1974, vol. 4, 1353-1364).

[3] = system: Mice; experiment: Acute intracisternal toxicity (method of Melartin et al.), mice; assay type: in vivo
Method: as §1

Chain of proteins (P02768 25-609): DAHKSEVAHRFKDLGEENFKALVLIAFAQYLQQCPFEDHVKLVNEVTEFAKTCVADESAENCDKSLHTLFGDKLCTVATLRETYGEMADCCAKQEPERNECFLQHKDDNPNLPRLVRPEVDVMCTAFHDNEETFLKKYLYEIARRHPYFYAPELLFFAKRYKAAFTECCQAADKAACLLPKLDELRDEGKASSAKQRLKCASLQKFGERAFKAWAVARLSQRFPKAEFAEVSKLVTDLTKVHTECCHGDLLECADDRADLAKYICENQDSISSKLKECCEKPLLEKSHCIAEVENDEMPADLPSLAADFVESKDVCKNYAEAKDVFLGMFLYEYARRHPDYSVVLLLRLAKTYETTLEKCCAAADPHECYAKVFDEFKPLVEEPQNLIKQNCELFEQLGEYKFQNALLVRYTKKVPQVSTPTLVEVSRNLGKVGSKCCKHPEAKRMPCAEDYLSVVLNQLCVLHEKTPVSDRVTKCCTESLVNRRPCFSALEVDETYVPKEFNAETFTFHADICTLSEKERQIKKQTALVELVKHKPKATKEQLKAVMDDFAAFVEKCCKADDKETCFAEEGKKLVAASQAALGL

Compound | Kd [2] [mM] | further results
CNC(=O)c1c(I)c(NC(C)=O)c(I)c(C(=O)O)c1I [Contrix (methylglucamine iothalamate), methylglucamine iothalamate] | – | Acute toxicity IC (DL50) Rats [1]: 0.028 mole/rat
O=C(CCCCC(=O)Nc1c(I)cc(I)c(C(=O)O)c1I)Nc1c(I)cc(I)c(C(=O)O)c1I [Methylglucamine adipiodone] | 0.0781 | –
CNC(=O)c1c(I)c(C(=O)NCC(=O)Nc2c(I)c(C(=O)O)c(I)c(C(=O)NCCO)c2I)c(I)c(N(C)C(C)=O)c1I [Methylglucamine ioxaglate] | 8.2 | –
CC(=O)Nc1c(I)c(C(=O)O)c(I)c(C(=O)NCCO)c1I [Telebrix] | – | Acute toxicity IC (DL50) Mice [3]: 0.2 g Eq iodine/kg
